In patent publication US4633014A, “Substituted 3-hydrazinopropionates” (priority 1983, dated 1986):

How the values were obtained:
[1] = system: arrhythmia induced by an intravenous administration of calcium chloride; experiment: Antiarrhythmic activity on a model of arrhythmia induced by intravenous calcium chloride (antagonism to calcium) in mice; type: in vivo; conditions: white mice, 20-40 minutes before
Method: The specific (antiarrhythmic) effect and acute toxicity were studied.
The antiarrhythmic activity of the compounds according to the present invention was studied on a model of arrhythmia induced by an intravenous administration of calcium chloride. In experiments on white mice of both sexes with a mass of 18-25 g narcotized by urethane (1,200 mg/kg intraperitoneally) ECG in the second standard lead was recorded. A 2% solution of calcium chloride was introduced into the tail vein at a constant rate (0.01 ml for 2 sec). The dose of calcium chloride causing arrhythmia and the dose causing the heart arrest were determined. In the test groups the test compounds were administered intraperitoneally 20-40 minutes before the beginning of the experiment.

in vivo = conditions: mouse, in vivo, ip
Method: (§1) The study of the effect provided by the compounds according to the present invention on the cardio-vascular system was carried out in experiments on white mice. The specific (antiarrhythmic) effect and acute toxicity were studied.
(§2) The acute toxicity of the compounds according to the present invention was determined in experiments on white mice with a mass of 20-25 g. The test compounds were administered intraperitoneally in the form of aqueous solutions or suspensions in Twin-80. Observation over the test animals was effected for 10 days.

white mice = experiment: in vivo
Method: as §1, §2

[2] = white mice, intraperitoneal, relative to quinidine

CCCCCC(=O)N(CCC(=O)OC)N(C)C [I-26, 3-(2,2-dimethyl-1-hexanoylhydrazino)methylpropionate]
Dose of calcium chloride causing arrythmia in animals under experiment ([1]; intraperitoneal dose 5 mg/kg): 111,3 mg/kg | Dose of calcium chloride causing death in animals under experiment ([1]; intraperitoneal dose 5 mg/kg): 138,0 mg/kg | Dose of calcium chloride causing arrythmia in animals under experiment ([1]; intraperitoneal dose 15 mg/kg): 107,6 mg/kg | Dose of calcium chloride causing death in animals under experiment ([1]; intraperitoneal dose 15 mg/kg): 140,0 mg/kg | LD50 at 240 h (in vivo): 630 mg/kg | Relative toxisity to quinidine (white mice; [2]): 4,0

CCCCCCCCCCCCCCCC(=O)N(CCC(=O)OC)N(C)C [I-27, 3-(2,2-dimethyl-1-hexadecanoylhydrazino)methylpropionate]
Dose of calcium chloride causing arrythmia in animals under experiment ([1]; intraperitoneal dose 5 mg/kg): 92,7 mg/kg | Dose of calcium chloride causing death in animals under experiment ([1]; intraperitoneal dose 5 mg/kg): 118,0 mg/kg | Dose of calcium chloride causing arrythmia in animals under experiment ([1]; intraperitoneal dose 15 mg/kg): 109,0 mg/kg | Dose of calcium chloride causing death in animals under experiment ([1]; intraperitoneal dose 15 mg/kg): 120,6 mg/kg | LD50 at 240 h (in vivo): 2380 mg/kg | Relative toxisity to quinidine (white mice; mouse, in vivo, ip, 14400 min): 15,2

CCCCCCCCCCCCCCCCCC(=O)N(CCC(=O)OC)N(C)C [I-28, 3-(2,2-dimethyl-1-octadecanoylhydrazino)methylpropionate]
Dose of calcium chloride causing arrythmia in animals under experiment ([1]; intraperitoneal dose 5 mg/kg): 90,1 mg/kg | Dose of calcium chloride causing death in animals under experiment ([1]; intraperitoneal dose 5 mg/kg): 108 mg/kg | Dose of calcium chloride causing arrythmia in animals under experiment ([1]; intraperitoneal dose 25 mg/kg): 133,8 mg/kg | Dose of calcium chloride causing death in animals under experiment ([1]; intraperitoneal dose 25 mg/kg): 143 mg/kg | LD50 at 240 h (in vivo): 6150 mg/kg | Relative toxisity to quinidine (white mice; mouse, in vivo, ip, 14400 min): 39,4

COC(=O)CCN(C(=O)c1ccccc1)N(C)C [I-29, 3-(2,2-dimethyl-1-benzoylhydrazino)methylpropionate]
Dose of calcium chloride causing arrythmia in animals under experiment ([1]; intraperitoneal dose 5 mg/kg): 97,6 mg/kg | Dose of calcium chloride causing death in animals under experiment ([1]; intraperitoneal dose 5 mg/kg): 109,5 mg/kg | Dose of calcium chloride causing arrythmia in animals under experiment ([1]; intraperitoneal dose 25 mg/kg): 140,2 mg/kg | Dose of calcium chloride causing death in animals under experiment ([1]; intraperitoneal dose 25 mg/kg): 142,0 mg/kg | LD50 at 240 h (in vivo): 3500 mg/kg | Relative toxisity to quinidine (white mice; mouse, in vivo, ip, 14400 min): 22,4

COC(=O)CCN(C(=O)Cc1ccccc1)N(C)C [I-30, 3-(2,2-dimethyl-1-benzylcarbonylhydrazino)methylpropionate]
Dose of calcium chloride causing arrythmia in animals under experiment ([1]; intraperitoneal dose 5 mg/kg): 94,0 mg/kg | Dose of calcium chloride causing death in animals under experiment ([1]; intraperitoneal dose 5 mg/kg): 120,5 mg/kg | Dose of calcium chloride causing arrythmia in animals under experiment ([1]; intraperitoneal dose 15 mg/kg): 102,0 mg/kg | Dose of calcium chloride causing death in animals under experiment ([1]; intraperitoneal dose 15 mg/kg): 125,0 mg/kg | LD50 at 240 h (in vivo): 1200 mg/kg | Relative toxisity to quinidine (white mice; mouse, in vivo, ip, 14400 min): 7,6

COC(=O)CCN(C(=O)c1ccccc1F)N(C)C [I-31, 3-(2,2-dimethyl-I-(2'-fluorophenylcarbonyl)hydrazino)methylpropionate]
Dose of calcium chloride causing arrythmia in animals under experiment ([1]; intraperitoneal dose 5 mg/kg): 88,5 mg/kg | Dose of calcium chloride causing death in animals under experiment ([1]; intraperitoneal dose 5 mg/kg): 109,0 mg/kg | Dose of calcium chloride causing arrythmia in animals under experiment ([1]; intraperitoneal dose 15 mg/kg): 100,5 mg/kg | Dose of calcium chloride causing death in animals under experiment ([1]; intraperitoneal dose 15 mg/kg): 112,5 mg/kg | LD50 at 240 h (in vivo): 1600 mg/kg | Relative toxisity to quinidine (white mice; mouse, in vivo, ip, 14400 min): 10,2

COC(=O)CCN(C(=O)c1ccc(Br)cc1)N(C)C [I-32, 3-(2,2-dimethyl-1-(4'-bromophenylcarbonyl)hydrazino)methylpropionate]
Dose of calcium chloride causing arrythmia in animals under experiment ([1]; intraperitoneal dose 5 mg/kg): 90,3 mg/kg | Dose of calcium chloride causing death in animals under experiment ([1]; intraperitoneal dose 5 mg/kg): 105,5 mg/kg | Dose of calcium chloride causing arrythmia in animals under experiment ([1]; intraperitoneal dose 15 mg/kg): 100,0 mg/kg | Dose of calcium chloride causing death in animals under experiment ([1]; intraperitoneal dose 15 mg/kg): 110,0 mg/kg | LD50 at 240 h (in vivo): 1680 mg/kg | Relative toxisity to quinidine (white mice; mouse, in vivo, ip, 14400 min): 10,7

COC(=O)CCN(C(=O)c1ccccc1COC(=O)c1ccccc1)N(C)C [I-33]
Dose of calcium chloride causing arrythmia in animals under experiment ([1]; intraperitoneal dose 5 mg/kg): 87,5 mg/kg | Dose of calcium chloride causing death in animals under experiment ([1]; intraperitoneal dose 5 mg/kg): 108,6 mg/kg | Dose of calcium chloride causing arrythmia in animals under experiment ([1]; intraperitoneal dose 15 mg/kg): 111,0 mg/kg | Dose of calcium chloride causing death in animals under experiment ([1]; intraperitoneal dose 15 mg/kg): 132,5 mg/kg | LD50 at 240 h (in vivo): 2850 mg/kg | Relative toxisity to quinidine (white mice; mouse, in vivo, ip, 14400 min): 18,2

C=CC(=O)N(CCC(=O)OC)N(C)C [I-34, 3-(2,2-dimethyl-1-acroylhydrazino)-methylpropionate]
Dose of calcium chloride causing arrythmia in animals under experiment ([1]; intraperitoneal dose 5 mg/kg): 108,4 mg/kg | Dose of calcium chloride causing death in animals under experiment ([1]; intraperitoneal dose 5 mg/kg): 130,0 mg/kg | Dose of calcium chloride causing arrythmia in animals under experiment ([1]; intraperitoneal dose 15 mg/kg): 110,5 mg/kg | Dose of calcium chloride causing death in animals under experiment ([1]; intraperitoneal dose 15 mg/kg): 136,0 mg/kg | LD50 at 240 h (in vivo): 980 mg/kg | Relative toxisity to quinidine (white mice; mouse, in vivo, ip, 14400 min): 6,2

COC(=O)CCN(C(=O)CCO)N(C)C [I-35, 3-(2,2-Dimethyl-1-3'-hydroxypropanoylhydrazino)-methylpropionate]
Dose of calcium chloride causing arrythmia in animals under experiment ([1]; intraperitoneal dose 5 mg/kg): 102,3 mg/kg | Dose of calcium chloride causing death in animals under experiment ([1]; intraperitoneal dose 5 mg/kg): 120 mg/kg | Dose of calcium chloride causing arrythmia in animals under experiment ([1]; intraperitoneal dose 15 mg/kg): 105,8 mg/kg | Dose of calcium chloride causing death in animals under experiment ([1]; intraperitoneal dose 15 mg/kg): 132,5 mg/kg | LD50 at 240 h (in vivo): > 3000 mg/kg | Relative toxisity to quinidine (white mice; mouse, in vivo, ip, 14400 min): > 19,2

COC(=O)CCN(C(=O)OC)N(C)C [I-36, 3-(2,2-dimethyl-1-methoxycarbonylhydrazino)methylpropionate]
Dose of calcium chloride causing arrythmia in animals under experiment ([1]; intraperitoneal dose 5 mg/kg): 94,0 mg/kg | Dose of calcium chloride causing death in animals under experiment ([1]; intraperitoneal dose 5 mg/kg): 113,6 mg/kg | Dose of calcium chloride causing arrythmia in animals under experiment ([1]; intraperitoneal dose 15 mg/kg): 98,6 mg/kg | Dose of calcium chloride causing death in animals under experiment ([1]; intraperitoneal dose 15 mg/kg): 118,5 mg/kg | LD50 at 240 h (in vivo): 1380 mg/kg | Relative toxisity to quinidine (white mice; [2]): 8,8

COC(=O)C(C)CN(C(C)=O)N(C)C (stereo not drawn) [I-37, 3-(2,2-dimethyl-I-acetylhydrazino)-2-methylmethylpropionate]
Dose of calcium chloride causing arrythmia in animals under experiment ([1]; intraperitoneal dose 5 mg/kg): 100 mg/kg | Dose of calcium chloride causing death in animals under experiment ([1]; intraperitoneal dose 5 mg/kg): 132,0 mg/kg | Dose of calcium chloride causing arrythmia in animals under experiment ([1]; intraperitoneal dose 15 mg/kg): 123 mg/kg | Dose of calcium chloride causing death in animals under experiment ([1]; intraperitoneal dose 15 mg/kg): 138,0 mg/kg | LD50 at 240 h (in vivo): 810 mg/kg | Relative toxisity to quinidine (white mice; [2]): 5,1

CCCCCC(=O)N(CC(C)C(=O)OC)N(C)C (stereo not drawn) [I-38, 3-(2,2-dimethyl-1-hexanoylhydrazino)-2-methylmethylpropionate]
Dose of calcium chloride causing arrythmia in animals under experiment ([1]; intraperitoneal dose 5 mg/kg): 102,0 mg/kg | Dose of calcium chloride causing death in animals under experiment ([1]; intraperitoneal dose 5 mg/kg): 115,8 mg/kg | Dose of calcium chloride causing arrythmia in animals under experiment ([1]; intraperitoneal dose 15 mg/kg): 96,5 mg/kg | Dose of calcium chloride causing death in animals under experiment ([1]; intraperitoneal dose 15 mg/kg): 120,0 mg/kg | LD50 at 240 h (in vivo): 1930 mg/kg | Relative toxisity to quinidine (white mice; mouse, in vivo, ip, 14400 min): 12,3

COC(=O)C(C)CN(C(=O)c1ccccc1)N(C)C (stereo not drawn) [I-39, 3-(2,2-dimethyl-1-benzoylhydrazino)-2-methylmethylpropionate]
Dose of calcium chloride causing arrythmia in animals under experiment ([1]; intraperitoneal dose 5 mg/kg): 88,7 mg/kg | Dose of calcium chloride causing death in animals under experiment ([1]; intraperitoneal dose 5 mg/kg): 111,3 mg/kg | Dose of calcium chloride causing arrythmia in animals under experiment ([1]; intraperitoneal dose 15 mg/kg): 100,0 mg/kg | Dose of calcium chloride causing death in animals under experiment ([1]; intraperitoneal dose 15 mg/kg): 121,5 mg/kg | LD50 at 240 h (in vivo): 1750 mg/kg | Relative toxisity to quinidine (white mice; mouse, in vivo, ip, 14400 min): 11,2

COC(=O)C(C)CN(C(=O)c1ccccc1F)N(C)C (stereo not drawn) [I-40, 3-(2,2-dimethyl-1-2'-fluorobenzoylhydrazino)-2-methylmethylpropionate]
Dose of calcium chloride causing arrythmia in animals under experiment ([1]; intraperitoneal dose 5 mg/kg): 93,5 mg/kg | Dose of calcium chloride causing death in animals under experiment ([1]; intraperitoneal dose 5 mg/kg): 115,0 mg/kg | Dose of calcium chloride causing arrythmia in animals under experiment ([1]; intraperitoneal dose 15 mg/kg): 103,3 mg/kg | Dose of calcium chloride causing death in animals under experiment ([1]; intraperitoneal dose 15 mg/kg): 118,6 mg/kg | LD50 at 240 h (in vivo): 1400 mg/kg | Relative toxisity to quinidine (white mice; mouse, in vivo, ip, 14400 min): 8,0

COC(=O)C(C)CN(C(=O)c1ccc(Br)cc1)N(C)C (stereo not drawn) [I-41]
Dose of calcium chloride causing arrythmia in animals under experiment ([1]; intraperitoneal dose 5 mg/kg): 90,6 mg/kg | Dose of calcium chloride causing death in animals under experiment ([1]; intraperitoneal dose 5 mg/kg): 110,0 mg/kg | Dose of calcium chloride causing arrythmia in animals under experiment ([1]; intraperitoneal dose 15 mg/kg): 102,5 mg/kg | Dose of calcium chloride causing death in animals under experiment ([1]; intraperitoneal dose 15 mg/kg): 122,0 mg/kg | LD50 at 240 h (in vivo): 2430 mg/kg | Relative toxisity to quinidine (white mice; [2]): 15,5

CCOC(=O)CCN(C(C)=O)N(C)C [I-42, 3-(2,2-dimethyl-1-acetylhydrazino)ethylpropionate]
Dose of calcium chloride causing arrythmia in animals under experiment ([1]; intraperitoneal dose 5 mg/kg): 87,5 mg/kg | Dose of calcium chloride causing death in animals under experiment ([1]; intraperitoneal dose 5 mg/kg): 112,0 mg/kg | Dose of calcium chloride causing arrythmia in animals under experiment ([1]; intraperitoneal dose 15 mg/kg): 103,0 mg/kg | Dose of calcium chloride causing death in animals under experiment ([1]; intraperitoneal dose 15 mg/kg): 115,0 mg/kg | LD50 at 240 h (in vivo): 2380 mg/kg | Relative toxisity to quinidine (white mice; mouse, in vivo, ip, 14400 min): 15,2
